We go through twelve compounds from patent publication US8993562B2, “Imidazo[1,2-b]pyridazines, processes, uses, intermediates and compositions” (Ferrer Internacional, S.A., priority 2006, dated 2015).

One assay deals with α2-GABAA receptor. Kind of assay: Ligand-binding assay, radiolabeled flumazenil competition, spinal cord membranes. The following applies: rat spinal cord membranes, radiolabeled flumazenil 1 nM. How it is done:
(§1) a) Ligand-binding Assays. Determination of the Affinity of Test Compounds for α1- and α2-GABAA Receptor
(§2) Male Sprague-Dawley rats weighing 200-250 g at the time of experiment were used. After decapitation of the animal, the cerebellum (tissue that mostly contains α1-GABAA receptor) and spinal cord (tissue that mostly contains α2-GABAA receptor) were removed. The membranes were prepared according to the method by J. Lameh et al. (Prog. Neuro-Psychopharmacol. Biol. Psychiatry, 24, 979-991, 2000) and H. Noguchi et al. (Eur J Pharm, 434, 21-28, 2002) with slight modifications. Once the tissues weighed, they were suspended in 50 mM Tris.HCl (pH 7.4), 1:40 (v/v), or sucrose 0.32 M in the case of spinal cord, homogenized and then centrifuged at 20000 g for 10 minutes at 7° C. The resulting pellet was resuspended under the same conditions and centrifuged again. The pellet was finally resuspended on a minimum volume and kept at −80° C. overnight. A slight modification was used in the case of spinal cord at the first centrifugation step. Centrifugation speed was at 1000 g and the supernatant was collected instead of discarded as in cerebellum. Then, supernatant was centrifuged at 20000 g and resuspended twice more under the same conditions described above for cerebellum. On the next day, the process was repeated until the final pellet was resuspended at a ratio of 1:10 (v/v) in the case of cerebellum and at a ratio of 1:5 (v/v) in the case of spinal cord.
(§3) Affinity was determined by competitive tests using radiolabeled flumazenil as ligand. The tests were performed according to the methods described by S. Arbilla et al. (Eur. J. Pharmacol., 130, 257-263, 1986); and Y. Wu et al. (Eur. J. Pharmacol., 278, 125-132, 1995) using 96-well microtiter plates. The membranes containing the study receptors, flumazenil (radiolabeling at a final concentration of 1 nM) and ascending concentrations of test compounds (in a total volume of 230 μl in 50 mM [pH 7.4] Tris.HCl buffer) were incubated. Simultaneously, the membranes were only incubated with the radiolabeled flumazenil (total binding, 100%) and in the presence of an elevated concentration of unradiolabeled flumazenil (non-specific binding, % estimation of radiolabeled ligand). The reactions started on adding the radiolabeled ligand followed by incubation for 60 minutes at 4° C. At the end of the incubation period, 200 μl of reaction were transferred to a multiscreen plate (Millipore) and filtered using a vacuum manifold and then washed three times with cold test buffer. The multiscreen plates were equipped with a GF/B filter that retained the membranes containing the receptors and the radiolabeled ligand which had been bound to the receptors. After washing, the plates were left till dry. Once dried, scintillation liquid was added and left under stirring overnight. The next day the plates were counted using a Perkin-Elmer Microbeta scintillation counter.
(§4) For analysis of the results the percentage of specific binding for every concentration of test compound was calculated as follows: specific binding−(X−N/T−N)×100 where, X: amount of bound ligand for every concentration of compound. T: total binding, maximum amount bound to the radiolabeled ligand. N: non-specific binding, amount of radiolabeled ligand bound in a non-specific way irrespective of the receptor used.
(§5) Every concentrations of compound were tested in triplicate and their mean values were used to determine the experimental values of % specific binding versus the concentration of compound. Affinity data are expressed as % inhibition at 10^−5M and 10^−7M concentrations.

A further assay relates to male CD1 mice. Kind of assay: In vivo predictive sedation-hypnosis test (traveled distance). The following applies: Mus musculus, ip, 0.5 h, traveled distance over 30 min versus control, read-out: % inhib motor activity; for inhibition in vivo at 98 µmol/kg: 98.0 μmol/kg intraperitoneal. The method, then: b) In Vivo Determination of Predictive Sedative-hypnotic Action
The in vivo effects of these compounds were assessed by a predictive sedation-hypnosis test in mice (D. J. Sanger et al., Eur. J. Pharmacol., 313, 35-42, 1996; and G. Griebel et al., Psychopharmacology, 146, 205-213, 1999).
Groups of 5-8 male CD1 mice, weighing 22-26 g at the time of test, were used. […] Compounds were suspended in 0.25% agar with one drop of Tween in a volume of 10 mL/kg. Control animals were given the vehicle alone. Using a Smart System (Panlab, S. L., Spain) the traveled distance in cm is recorded for each mouse at 5-minutes intervals during a period of 30 minutes after dosing. The inhibition percentage of traveled distance of treated animals versus control animals (the first 5 minutes were discarded) was calculated.

The subject of a further assay is α1-GABAA receptor. As to the kind of experiment: Ligand-binding assay, radiolabeled flumazenil competition, cerebellum membranes. Particulars: rat cerebellum membranes, radiolabeled flumazenil 1 nM. How it is done:
as §1, §2, §3, §4, §5

Regarding `CCCN(CCC)C(=O)Cc1c(-c2ccc(F)cc2)nc2ccc(OC)nn12` [Example 41, 2-[2-(4-Fluoro-phenyl)-6-methoxy-imidazo[1,2-b]pyridazin-3-yl]-N,N-dipropyl-acetamide], in the assay with α2-GABAA receptor, the “% inhib 10^−5 M, affinity for the α2-subunit of the GABAA receptor” value amounted to 85.3% and the “% inhib 10^−7 M, affinity for the α2-subunit of the GABAA receptor” value was found to be 17.0%. Moreover, in the assay with male CD1 mice (0.98 μmol/kg intraperitoneal), the inhibition in vivo at 0.98 µmol/kg was 15.7%. In addition, the inhibition in vivo at 98 µmol/kg with male CD1 mice was 91.2%. Moreover, in the assay with α1-GABAA receptor, the “% inhib 10^−5 M, affinity for the α1-subunit of the GABAA receptor” value was determined as 99.8% and the “% inhib 10^−7 M, affinity for the α1-subunit of the GABAA receptor” value came to 75.4%.

On to `CCCN(CCC)C(=O)Cc1c(-c2ccc(F)cc2)nc2ccc(OCC)nn12` [Example 43, 2-[6-Ethoxy-2-(4-fluoro-phenyl)-imidazo[1,2-b]pyridazin-3-yl]-N,N-dipropyl-acetamide], for which, in the assay on α2-GABAA receptor, the “% inhib 10^−5 M, affinity for the α2-subunit of the GABAA receptor” value came out at 80.3% and the “% inhib 10^−7 M, affinity for the α2-subunit of the GABAA receptor” value is recorded as 20.1%. Besides, in the assay on male CD1 mice, the inhibition in vivo at 98 µmol/kg is 95.7%. In the assay on α1-GABAA receptor, the “% inhib 10^−5 M, affinity for the α1-subunit of the GABAA receptor” value is on record as 99.5% and the “% inhib 10^−7 M, affinity for the α1-subunit of the GABAA receptor” value is listed as 49.9%.

As to `COc1ccc2nc(-c3ccc(F)cc3)c(CC(=O)N3CCCCC3)n2n1` [Example 65, 2-[2-(4-Fluoro-phenyl)-6-methoxy-imidazo[1,2-b]pyridazin-3-yl]-1-piperidin-1-yl-ethanone], in the assay on α2-GABAA receptor, the “% inhib 10^−5 M, affinity for the α2-subunit of the GABAA receptor” value came to 78.5% and the “% inhib 10^−7 M, affinity for the α2-subunit of the GABAA receptor” value stood at 16.3%. Moreover, the inhibition in vivo at 98 µmol/kg in the assay on male CD1 mice was 95.5%. Moreover, in the assay on α1-GABAA receptor, the “% inhib 10^−5 M, affinity for the α1-subunit of the GABAA receptor” value is 99.5% and the “% inhib 10^−7 M, affinity for the α1-subunit of the GABAA receptor” value is given as 58.5%.

Turning to `CCOc1ccc2nc(-c3ccc(F)cc3)c(CC(=O)N(CC)CC)n2n1` [Example 66, 2-[6-Ethoxy-2-(4-fluoro-phenyl)-imidazo[1,2-b]pyridazin-3-yl]-N,N-diethyl-acetamide], in the assay with α2-GABAA receptor, the “% inhib 10^−5 M, affinity for the α2-subunit of the GABAA receptor” value was 79.4% and the “% inhib 10^−7 M, affinity for the α2-subunit of the GABAA receptor” value amounted to 7.8%. In addition, the inhibition in vivo at 98 µmol/kg in the assay with male CD1 mice is 96%. In the assay on α1-GABAA receptor, the “% inhib 10^−5 M, affinity for the α1-subunit of the GABAA receptor” value amounted to 98.3% and the “% inhib 10^−7 M, affinity for the α1-subunit of the GABAA receptor” value stood at 50.4%.

Turning to `CCOc1ccc2nc(-c3ccc(F)cc3)c(CC(=O)N3CCCCC3)n2n1` [Example 67, 2-[6-Ethoxy-2-(4-fluoro-phenyl)-imidazo[1,2-b]pyridazin-3-yl]-1-piperidin-1-yl-ethanone], in the assay with α2-GABAA receptor, the “% inhib 10^−5 M, affinity for the α2-subunit of the GABAA receptor” value was 83.7% and the “% inhib 10^−7 M, affinity for the α2-subunit of the GABAA receptor” value stood at 8.8%. The inhibition in vivo at 98 µmol/kg in the assay with male CD1 mice was 90.8%. For the same compound, in the assay with α1-GABAA receptor, the “% inhib 10^−5 M, affinity for the α1-subunit of the GABAA receptor” value was 98.9% and the “% inhib 10^−7 M, affinity for the α1-subunit of the GABAA receptor” value worked out at 42.2%.

Consider `CCN(CC)C(=O)Cc1c(-c2ccc(OC)cc2)nc2ccc(C)nn12` [Example 70, N,N-Diethyl-2-[2-(4-methoxy-phenyl)-6-methyl-imidazo[1,2-b]pyridazin-3-yl]-acetamide], for which, in the assay with α2-GABAA receptor, the “% inhib 10^−5 M, affinity for the α2-subunit of the GABAA receptor” value is 80.3% and the “% inhib 10^−7 M, affinity for the α2-subunit of the GABAA receptor” value amounted to 23.6%. For the same compound, the inhibition in vivo at 98 µmol/kg in the assay on male CD1 mice is 87%. Moreover, in the assay on α1-GABAA receptor, the “% inhib 10^−5 M, affinity for the α1-subunit of the GABAA receptor” value is listed as 99.9% and the “% inhib 10^−7 M, affinity for the α1-subunit of the GABAA receptor” value is recorded as 84.5%.

Regarding `CCCN(CCC)C(=O)Cc1c(-c2ccc(OC)cc2)nc2ccc(C)nn12` [Example 71, 2-[2-(4-Methoxy-phenyl)-6-methyl-imidazo[1,2-b]pyridazin-3-yl]-N,N-dipropyl-acetamide], in the assay on α2-GABAA receptor, the “% inhib 10^−5 M, affinity for the α2-subunit of the GABAA receptor” value is 88.5% and the “% inhib 10^−7 M, affinity for the α2-subunit of the GABAA receptor” value came to 50.6%. Moreover, the inhibition in vivo at 98 µmol/kg in the assay with male CD1 mice was 96%. In the assay on α1-GABAA receptor, the “% inhib 10^−5 M, affinity for the α1-subunit of the GABAA receptor” value is reported as 100.2% and the “% inhib 10^−7 M, affinity for the α1-subunit of the GABAA receptor” value came to 95.0%.

In the case of `COc1ccc(-c2nc3ccc(C)nn3c2CC(=O)N2CCCCC2)cc1` [Example 73, 2-[2-(4-Methoxy-phenyl)-6-methyl-imidazo[1,2-b]pyridazin-3-yl]-1-piperidin-1-yl-ethanone], in the assay on α2-GABAA receptor, the “% inhib 10^−5 M, affinity for the α2-subunit of the GABAA receptor” value amounted to 77.0% and the “% inhib 10^−7 M, affinity for the α2-subunit of the GABAA receptor” value stood at 20.6%. Also, in the assay on male CD1 mice, the inhibition in vivo at 98 µmol/kg was 94.1%. In the assay on α1-GABAA receptor, the “% inhib 10^−5 M, affinity for the α1-subunit of the GABAA receptor” value came to 99.9% and the “% inhib 10^−7 M, affinity for the α1-subunit of the GABAA receptor” value is on record as 76.5%.

As for `CCN(CC)C(=O)Cc1c(-c2ccc(OC)cc2)nc2ccc(OC)nn12` [Example 75, N,N-Diethyl-2-[6-methoxy-2-(4-methoxy-phenyl)-imidazo[1,2-b]pyridazin-3-yl]-acetamide], in the assay on α2-GABAA receptor, the “% inhib 10^−5 M, affinity for the α2-subunit of the GABAA receptor” value was 68.8% and the “% inhib 10^−7 M, affinity for the α2-subunit of the GABAA receptor” value was found to be 9.3%. Also, in the assay on male CD1 mice, the inhibition in vivo at 98 µmol/kg is 92.6%. Moreover, in the assay on α1-GABAA receptor, the “% inhib 10^−5 M, affinity for the α1-subunit of the GABAA receptor” value was found to be 99.4% and the “% inhib 10^−7 M, affinity for the α1-subunit of the GABAA receptor” value is reported as 52.1%.

Regarding `Cc1ccc(-c2nc3ccc(C)nn3c2CC(=O)Nc2nccs2)cc1` [Example 83, 2-(6-Methyl-2-p-tolyl-imidazo[1,2-b]pyridazin-3-yl)-N-thiazol-2-yl-acetamide], in the assay with α2-GABAA receptor, the “% inhib 10^−5 M, affinity for the α2-subunit of the GABAA receptor” value was 93.1% and the “% inhib 10^−7 M, affinity for the α2-subunit of the GABAA receptor” value amounted to 57.7%. For the same compound, the inhibition in vivo at 98 µmol/kg in the assay with male CD1 mice is 88.9%. Further, in the assay with α1-GABAA receptor, the “% inhib 10^−5 M, affinity for the α1-subunit of the GABAA receptor” value was 99.6% and the “% inhib 10^−7 M, affinity for the α1-subunit of the GABAA receptor” value was determined as 97.6%.

`Cc1ccc(-c2nc3ccc(C)nn3c2CC(=O)N(C(C)C)C(C)C)cc1` [Example 84, N,N-Diisopropyl-2-(6-methyl-2-p-tolyl-imidazo[1,2-b]pyridazin-3-yl)-acetamide]: in the assay with α2-GABAA receptor, the “% inhib 10^−5 M, affinity for the α2-subunit of the GABAA receptor” value stood at 63.9% and the “% inhib 10^−7 M, affinity for the α2-subunit of the GABAA receptor” value was determined as 3.1%. The inhibition in vivo at 98 µmol/kg in the assay with male CD1 mice was 90.8%. Moreover, in the assay on α1-GABAA receptor, the “% inhib 10^−5 M, affinity for the α1-subunit of the GABAA receptor” value came out at 100.0% and the “% inhib 10^−7 M, affinity for the α1-subunit of the GABAA receptor” value amounted to 91.7%.

Take `Cc1ccc(-c2nc3ccc(C)nn3c2CC(=O)Nc2ccccc2)cc1` [Example 86, 2-(6-Methyl-2-p-tolyl-imidazo[1,2-b]pyridazin-3-yl)-N-phenyl-acetamide]: in the assay with α2-GABAA receptor, the “% inhib 10^−5 M, affinity for the α2-subunit of the GABAA receptor” value came to 80.9% and the “% inhib 10^−7 M, affinity for the α2-subunit of the GABAA receptor” value is given as 23.0%. The inhibition in vivo at 98 µmol/kg in the assay with male CD1 mice was 92.6%. In the assay with α1-GABAA receptor, the “% inhib 10^−5 M, affinity for the α1-subunit of the GABAA receptor” value came to 99.5% and the “% inhib 10^−7 M, affinity for the α1-subunit of the GABAA receptor” value came out at 75.9%.
